Drawing on DBAASP, this text covers MIC for six molecules.

Values after ≈ are worked out from the molar mass of the structure shown.

Among the test systems are Klebsiella pneumoniae; Vibrio cholerae; Saccharomyces cerevisiae; Pseudomonas aeruginosa; Salmonella typhimurium; Neisseria meningitidis; Candida albicans; Escherichia coli AB94012; Staphylococcus aureus; Staphylococcus xylosus; Acinetobacter baumannii.
What all share (assay): ≥ marks a high value that may be exact or a test limit, other limits are often not marked, values filed in µg/mL are converted to µM
For test [1], the system named is Staphylococcus aureus ATCC 25923.
The subject of test [2] is Escherichia coli 363 ATCC 11775.
Test [3] relates to Staphylococcus haemolyticus.
Test [4] deals with Bacillus megaterium ATCC 9885.
Test [5] concerns Enterobacter cloacae ATCC 11775.
Test [6] concerns Salmonella enterica subsp. enterica serovar Enteritidis.
For test [7], the system named is Pseudomonas aeruginosa ATCC 9027.
In test [8] the test system is Escherichia coli ATCC 8739.
Test [9] relates to Proteus vulgaris NCTC 4635.
Test [10] deals with Bacillus subtilis ATCC 9372.
The subject of test [11] is Staphylococcus aureus ATCC 6538.
Test [12] deals with Staphylococcus epidermidis P1389.
In test [13] the test system is Micrococcus luteus AB93113.
The test system of test [14] is Bacillus thuringiensis AB92037.
Test [15] has as its system Pseudomonas aeruginosa AB93066.
The test system of test [16] is Staphylococcus aureus P1369.
Test [17] relates to Bacillus subtilis AB91021.
Test [18] relates to Staphylococcus aureus P1374.
Test [19] relates to Staphylococcus aureus P1386.
Test [20] concerns Staphylococcus aureus AB94004.
Test [21] has as its system Staphylococcus epidermidis P1111.
Test [22] relates to Escherichia coli ATCC 25922.
The test system of test [23] is Batrachochytrium dendrobatidis.
Test [24] deals with Staphylococcus aureus CIP 53.156.
Test [25] concerns Staphylococcus xylosus ATCC 35033.
In test [26] the test system is Staphylococcus epidermidis RP62A/1.
The test system of test [27] is Klebsiella pneumoniae ATCC 700603.
The subject of test [28] is Escherichia coli ATCC 25726.
Test [29] relates to Staphylococcus epidermidis RP62A.
Test [30] concerns Proteus mirabilis ATCC 25933.
Test [31] relates to Candida albicans ATCC 90028.
For test [32], the system named is Pseudomonas aeruginosa ATCC 27853.
The subject of test [33] is Stenotrophomonas maltophilia.
Test [34] concerns Staphylococcus aureus ATCC 29213.

As to `CC(C)C[C@H](NC(=O)[C@H](CC(C)C)NC(=O)[C@H](CCCCN)NC(=O)CNC(=O)[C@H](C)NC(=O)[C@@H](NC(=O)[C@H](CCCCN)NC(=O)[C@H](CC(C)C)NC(=O)[C@H](CC(C)C)NC(=O)[C@H](CC(=O)O)NC(=O)[C@@H](NC(=O)[C@@H](NC(=O)[C@@H](NC(=O)CN)C(C)C)C(C)C)[C@@H](C)O)[C@@H](C)O)C(=O)NCC(=O)N[C@@H](CC(N)=O)C(=O)N[C@@H](CC(C)C)C(=O)N[C@H](C(=O)NCC(=O)N[C@@H](CO)C(=O)N[C@@H](CC(C)C)C(=O)N[C@@H](CO)C(=O)NCC(N)=O)C(C)C` [GVVTDLLKTAGKLLGNLVGSLSG], the MIC in the test with Klebsiella pneumoniae was 100 µM (≈ 221 µg/mL); in the test on Vibrio cholerae it was 25 µM (≈ 55.3 µg/mL); in test [1], 50.5 µM (≈ 112 µg/mL); in test [2], 12.5 µM (≈ 27.6 µg/mL); with Saccharomyces cerevisiae, not below 300 µM; against Pseudomonas aeruginosa it was 100 µM (≈ 221 µg/mL). The MIC is not below 100 µM in [3]; 12.5 µM (≈ 27.6 µg/mL) in [4]; not below 100 µM in test [5]; not below 50 µM in the test with Salmonella typhimurium; not below 100 µM in the test with Neisseria meningitidis; 25 µM (≈ 55.3 µg/mL) in test [6]. The molecule further had an MIC against Candida albicans of 150 µM (≈ 332 µg/mL).

For the molecule `CC[C@H](C)[C@H](N)C(=O)N[C@@H](CCCCN)C(=O)N[C@@H](CCCCN)C(=O)N[C@H](C(=O)N[C@@H](C)C(=O)N[C@@H](CO)C(=O)N[C@H](C(=O)O)C(C)C)C(C)C` [IKKVASV], the MIC in test [7] is 1380 µM (≈ 1020 µg/mL); in test [8] it was not below 1380 µM; in test [9], not below 1380 µM; in test [10] it was not below 1380 µM; in [11], more than 1380 µM.

For `CC[C@H](C)[C@H](NC(=O)[C@H](C)NC(=O)[C@H](CO)NC(=O)[C@@H](NC(=O)[C@H](CC(C)C)NC(=O)CNC(=O)CNC(=O)[C@@H](NC(=O)[C@H](CC(C)C)NC(=O)[C@H](CO)NC(=O)[C@@H]1CCCN1C(=O)[C@H](CC(C)C)NC(=O)[C@H](CC(C)C)NC(=O)[C@H](CO)NC(=O)[C@H](Cc1ccccc1)NC(=O)[C@@H](N)Cc1ccccc1)[C@@H](C)CC)C(C)C)C(=O)N[C@@H](CCCCN)C(N)=O` [FFSLLPSLIGGLVSAIK], the MIC is 28.4 µM (≈ 50 µg/mL) in test [12]; 11.3 µM (≈ 20 µg/mL) in [13]; 28.4 µM (≈ 50 µg/mL) in [14]; not below 56.7 µM in [15]; 28.4 µM (≈ 50 µg/mL) in test [16]; 28.4 µM (≈ 50 µg/mL) in test [17]. Further, the MIC in test [18] was 28.4 µM (≈ 50 µg/mL); in test [19] it was 28.4 µM (≈ 50 µg/mL); in the test on Escherichia coli AB94012, not below 56.7 µM; in test [20], 11.3 µM (≈ 20 µg/mL); in test [21], 11.3 µM (≈ 20 µg/mL).

As for `CC[C@H](C)[C@H](NC(=O)CN)C(=O)N[C@@H](CCSC)C(=O)N[C@@H](CC(=O)O)C(=O)N[C@@H](CO)C(=O)N[C@H](C(=O)N[C@@H](CCCCN)C(=O)NCC(=O)N[C@@H](CC(C)C)C(=O)N[C@@H](C)C(=O)N[C@@H](CCCCN)C(=O)N[C@@H](CC(N)=O)C(=O)N[C@@H](CC(C)C)C(=O)N[C@@H](C)C(=O)NCC(=O)N[C@@H](CCCCN)C(=O)N[C@@H](CC(C)C)C(=O)N[C@@H](CC(C)C)C(=O)N[C@@H](CC(=O)O)C(=O)N[C@@H](CO)C(=O)N[C@@H](CC(C)C)C(=O)N[C@@H](CCCCN)C(=O)N[C@H]1CSSC[C@@H](C(=O)O)NC(=O)CNC(=O)[C@H]([C@@H](C)O)NC(=O)[C@H]([C@@H](C)CC)NC(=O)[C@H](CCCCN)NC1=O)C(C)C` [GIMDSVKGLAKNLAGKLLDSLKCKITGC], the values for the MIC in test [22] and in [23] were 17 µM (≈ 48.9 µg/mL) and 12.5 µM (≈ 35.9 µg/mL), respectively.

On to `CC[C@H](C)[C@H](NC(=O)[C@@H](N)CCCCN)C(=O)N[C@@H](CCCCN)C(=O)N[C@H](C(=O)N1CCC[C@H]1C(=O)N[C@@H](Cc1c[nH]c2ccccc12)C(=O)NCC(=O)N[C@@H](CCCCN)C(=O)N[C@H](C(=O)N[C@@H](CCCCN)C(=O)N[C@@H](CC(=O)O)C(=O)N[C@@H](Cc1ccccc1)C(=O)N[C@@H](CC(C)C)C(=O)N[C@H](C(=O)NCC(=O)NCC(=O)N[C@@H](CCSC)C(=O)N[C@@H](CCCCN)C(=O)N[C@@H](C)C(=O)N[C@H](C(=O)O)C(C)C)C(C)C)C(C)C)[C@@H](C)CC` [KIKIPWGKVKDFLVGGMKAV], for which the MIC in [24] was not below 57 µM; against Staphylococcus aureus, 15.4 µM (≈ 34 µg/mL); in the test on Staphylococcus xylosus, 1.35 µM (≈ 3 µg/mL); in [25], 2.08 µM (≈ 4.6 µg/mL).

On to `CC[C@H](C)[C@H](N)C(=O)N[C@@H](CCCCN)C(=O)N[C@@H](CC(C)C)C(=O)N[C@@H](CO)C(=O)N1CCC[C@H]1C(=O)N[C@@H](CCC(=O)O)C(=O)N[C@H](C(=O)N[C@@H](CCCCN)C(=O)N[C@@H](CC(=O)O)C(=O)N[C@@H](CC(N)=O)C(=O)N[C@@H](CC(C)C)C(=O)N[C@@H](CCCCN)C(=O)N[C@@H](CCCCN)C(=O)N[C@H](C(=O)N[C@@H](CC(C)C)C(=O)N[C@@H](CCCCN)C(=O)NCC(=O)N[C@@H](C)C(=O)N[C@H](C(=O)N[C@@H](CCCCN)C(=O)NCC(=O)N[C@@H](C)C(=O)N[C@H](C(=O)N[C@@H](C)C(=O)N[C@H](C(=O)N[C@@H](C)C(=O)N[C@@H](CCCCN)C(=O)N[C@@H](CCSC)C(=O)N[C@H](C(N)=O)C(C)C)C(C)C)[C@@H](C)CC)[C@@H](C)CC)C(C)C)[C@@H](C)O` [IKLSPETKDNLKKVLKGAIKGAIAVAKMV], for which the MIC in test [26] amounted to 1.6 µM (≈ 4.9 µg/mL); in the test on Klebsiella pneumoniae it was 25 µM (≈ 76.6 µg/mL); in test [27], 20 µM (≈ 61.3 µg/mL); in the test with Acinetobacter baumannii, 6.25 µM (≈ 19.1 µg/mL); in [1], 10 µM (≈ 30.6 µg/mL); in test [28], 20 µM (≈ 61.3 µg/mL). Besides, the MIC in [29] is 3.1 µM (≈ 9.5 µg/mL); in test [30], not below 100 µM; in [31] it was not below 80 µM; in test [32] it was 40 µM (≈ 123 µg/mL); in [33], 6.25 µM (≈ 19.1 µg/mL); in test [34], 12.5 µM (≈ 38.3 µg/mL).

What is called MIC is the smallest concentration in the dilution series that meets the test's criterion for growth inhibition.
